Tested on: neural stem cell line, CTX0E03
Assay: Hypothermic / ambient shelf-life viability studies (trypan blue exclusion)
Assay type: cell-based, human
Conditions: in saline solution at ambient temperature
Method: Cultures of cells were expanded in T-flasks until 70 to 90% confluent. The spent medium was aspirated and then the cell monolayer washed with HBSS without magnesium or calcium ions (Invitrogen). The wash was aspirated and then the cells dissociated with recombinant bovine trypsin (Lonza TrypZean/EDTA) for 5 minutes at 37° C. The dissociated cell suspension was mixed with a trypsin inhibitor solution (0.55 mg/ml soybean trypsin inhibitor [Sigma], 1% HSA [Grifols], 25 U/ml benzon nuclease [VWR] in DMEM:F12 [Invitrogen]) and centrifuged for 5 minutes at ˜500×g. The supernatant was aspirated and the cell pellet washed in 50% HypoThermosol®-FRS (BioLife Solutions, Inc) in DMEM:F12 followed by centrifugation at ˜500×g for 5 minutes. The cell pellet was then suspended in HypoThermosol®-FRS at a concentration of 40,000 to 60,000 cells/μl. […]
Shelf-life studies have assessed the viability of the therapeutic and commercially manufactured neural stem cell line, CTX0E03 (Pollock et al., 2006), formulated in saline or using the method described in this invention using HTS-FRS. […]
Samples of cells were mixed 1:1 with 0.4% Trypan blue (Sigma) and loaded onto a haemocytometer. […] The viability and concentration of the sample is determined by counting the cells within a grid of the haemocytometer using 10× objective phase-contrast microscopy.

Cc1c(C)c2c(c(C)c1O)CCC(C)(C(=O)O)O2 (stereo not shown) [Trolox]
time neural stem cells are preserved: 2 days

Source: patent US9265795B2, “Cellular compositions for use in therapy” (RENEURON LIMITED, priority 2008, dated 2016)
